Assay results reported in US9115121B2, “1,3,5-triazine-2-amine derivatives, preparation thereof and diagnostic and therapeutic use thereof” (SANOFI, priority 2011, dated 2015).

Target: human CB2 receptors (Homo sapiens (Human), UniProt P34972)
Test: Affinity binding test on human CB2 receptors (tritiated ligand, membranes of recombinant cell lines)
Details: concentration causing 50% inhibition of specific binding of the tritiated ligand, read-out: IC50 (nM) hCB2
Method: Affinity binding tests were performed according to the experimental conditions described by M. Rinaldi-Carmona in J. Pharmacol. Exp. Therap. 1998, 287, 644-650, with membranes derived either from rodent tissues or from recombinant cell lines in which the human CB2 receptors were expressed (Munro et al., Nature 1993, 365, 61-65). The affinity of the compounds is expressed in the form of the IC50 (concentration causing 50% inhibition of specific binding of the tritiated ligand used in vitro).

Sequence of human CB2 receptors (P34972 whole entry): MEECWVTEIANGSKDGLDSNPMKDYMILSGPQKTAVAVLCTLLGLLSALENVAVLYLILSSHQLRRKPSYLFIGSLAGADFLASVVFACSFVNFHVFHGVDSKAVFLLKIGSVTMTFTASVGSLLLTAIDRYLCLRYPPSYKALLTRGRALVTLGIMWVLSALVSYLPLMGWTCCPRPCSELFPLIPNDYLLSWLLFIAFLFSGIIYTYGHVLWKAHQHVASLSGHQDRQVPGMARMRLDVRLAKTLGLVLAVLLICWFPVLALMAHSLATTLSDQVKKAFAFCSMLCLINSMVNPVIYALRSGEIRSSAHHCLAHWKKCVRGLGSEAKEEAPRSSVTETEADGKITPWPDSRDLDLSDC

Row | Structure (SMILES) | IC50 [nM]
1 | COc1nc(NCCc2ccc(F)cc2)nc(-c2cccc(OC(C)C)c2)n1 [Compound 2] | 39
2 | COc1nc(NCCc2ccc(F)cc2)nc(-c2ccc(OC)c(OC)c2)n1 [Compound 3] | 11
3 | COc1nc(NCCc2ccc(F)cc2)nc(-c2ccc(SC)cc2)n1 [Compound 5] | 14
4 | COC(=O)CCc1cccc(-c2nc(NCCc3ccc(F)cc3)nc(OC)n2)c1 [Compound 6] | 12
5 | COc1nc(NCCc2ccc(F)cc2)nc(-c2ccc3c(c2)OCO3)n1 [Compound 7] | 9
6 | COc1nc(NCCc2ccc(F)cc2)nc(-c2ccc3c(c2)OCCO3)n1 [Compound 8] | 14
7 | COc1nc(NCCc2ccc(F)cc2)nc(-c2cccc(C(C)=O)c2F)n1 [Compound 10] | 10
8 | COc1nc(NCCc2ccc(F)cc2)nc(-c2cccc(S(=O)(=O)NC3CC3)c2)n1 [Compound 11] | 2.7
9 | COc1nc(NCCc2ccc(F)cc2)nc(-c2ccc(Cl)c(C(C)(C)O)c2)n1 [Compound 13] | 0.4
10 | COc1nc(NCCc2ccc(F)cc2)nc(-c2ccc(F)c(C(C)(C)O)c2)n1 [Compound 14] | 8
11 | COc1nc(NCCc2ccc(F)cc2)nc(-c2ccc(C(C)(C)O)c(OC)c2)n1 [Compound 15] | 17
12 | COc1nc(NCCc2ccc(F)cc2)nc(-c2ccc(N(C)C)nc2)n1 [Compound 16] | 35
13 | COc1nc(NCCc2ccc(F)cc2)nc(-c2cc3cc(Br)ccc3[nH]2)n1 [Compound 17] | 17
14 | COc1nc(NCCc2ccc(F)cc2)nc(-c2cc3cc(Cl)ccc3[nH]2)n1 [Compound 19] | 14
15 | COc1nc(NCCc2ccc(F)cc2)nc(-c2cc3ccc(F)cc3[nH]2)n1 [Compound 21] | 48
16 | COc1nc(NCCc2ccc(F)cc2)nc(-c2cc3cc(C)ccc3[nH]2)n1 [Compound 22] | 24
17 | COc1nc(NCCc2ccc(F)cc2)nc(-c2cc3c(OC)cccc3[nH]2)n1 [Compound 23] | 33
18 | COc1ccc2[nH]c(-c3nc(NCCc4ccc(F)cc4)nc(OC)n3)cc2c1 [Compound 24] | 21
19 | COc1nc(NCCc2ccc(F)cc2)nc(-c2cc3cc(C#N)ccc3[nH]2)n1 [Compound 25] | 27
20 | COc1nc(NCCc2ccc(F)cc2)nc(-c2cc3ccc(SC)cc3[nH]2)n1 [Compound 26] | 37
21 | COc1nc(NCCc2ccc(F)cc2)nc(-c2cccc3[nH]ccc23)n1 [Compound 27] | 27
22 | COc1nc(NCCc2ccc(F)cc2)nc(-c2ccc3[nH]ccc3c2)n1 [Compound 28] | 34
23 | COc1nc(NCCc2ccc(F)cc2)nc(-c2ccc3cc[nH]c3c2)n1 [Compound 29] | 14
24 | COc1nc(NCCc2ccc(F)cc2)nc(-c2cc3ccccc3o2)n1 [Compound 30] | 5
25 | COc1nc(NCCc2ccc(F)cc2)nc(-c2ccc3nonc3c2)n1 [Compound 31] | 42
26 | COc1nc(NCCc2ccc(F)cc2)nc(-c2cnc3ccccc3c2)n1 [Compound 32] | 34
27 | COc1nc(NCCc2ccc(F)cc2)nc(-c2ccnc3ccccc23)n1 [Compound 33] | 11

Row | Structure (SMILES) | IC50 [nM]
28 | COc1nc(NCCc2ccc(F)cc2)nc(-c2cccc3ncccc23)n1 [Compound 34] | 47
29 | COc1nc(NCCc2ccc(F)cc2)nc(-c2ccc3ncccc3c2)n1 [Compound 35] | 32
30 | COc1nc(NCCc2ccc(F)cc2)nc(-c2cccc3cccnc23)n1 [Compound 36] | 17
31 | COc1nc(NCCc2ccc(F)cc2)nc(-c2ccc(F)c3cccnc23)n1 [Compound 37] | 1
32 | COc1nc(NCCc2ccc(F)cc2)nc(-c2ccc(C)c3ncccc23)n1 [Compound 38] | 38
33 | COc1nc(NCCc2ccc(F)cc2)nc(-c2ccc(OC)c3nc(C)ccc23)n1 [Compound 39] | 38
34 | COc1nc(NCCc2ccc(F)cc2)nc(-c2cncc3ccccc23)n1 [Compound 40] | 21
35 | COc1nc(NCCc2ccc(F)cc2)nc(-c2cccc3cnccc23)n1 [Compound 41] | 20
36 | COc1nc(NCCc2ccc(OC(F)F)cc2)nc(-c2cc3c(Cl)cccc3[nH]2)n1 [Compound 42] | 24
37 | COc1nc(NCCc2ccc(OC(F)F)cc2)nc(-c2cc3cc(F)ccc3[nH]2)n1 [Compound 43] | 45
38 | COc1nc(NCCc2ccc(OC(F)F)cc2)nc(-c2cccc(C(C)(C)O)c2)n1 [Compound 44] | 18
39 | COc1nc(NCCc2ccc(OC(F)F)cc2)nc(-c2ccc(F)c(C(C)(C)O)c2)n1 [Compound 45] | 30
40 | COc1nc(NCCc2ccc(F)cc2)nc(-c2cc3ccccc3s2)n1 [Compound 47] | 4
41 | COc1ccc2oc(-c3nc(NCCc4ccc(F)cc4)nc(OC)n3)cc2c1 [Compound 48] | 12
42 | COc1nc(NCCc2ccc(OC(F)F)cc2)nc(-c2cccc(OC)c2C(C)(C)O)n1 [Compound 49] | 4
43 | COc1nc(NCCc2ccc(OC(F)(F)F)cc2)nc(-c2ccc(Cl)c(C(C)(C)O)c2)n1 [Compound 50] | 12
44 | COc1nc(NCCc2ccc(F)cc2)nc(-c2cc3cc(Cl)ccc3o2)n1 [Compound 51] | 23
45 | COc1nc(NCCc2ccc(OC(F)(F)F)cc2)nc(-c2ccc(OC)c(C(C)(C)O)c2)n1 [Compound 54] | 9
46 | COc1nc(NCCc2ccc(OC(F)F)cc2)nc(-c2ccc(C)c(S(=O)(=O)NC3CC3)c2)n1 [Compound 55] | 44
47 | CCC(O)(CC)c1cccc(-c2nc(NCCc3ccc(F)cc3)nc(OC)n2)c1 [Compound 57] | 21
48 | COc1nc(NCCc2ccc(F)cc2)nc(-c2ccc(CO)c(S(=O)(=O)NC3CC3)c2)n1 [Compound 59] | 25
49 | COc1nc(NCCc2ccc(OC(F)F)cc2)nc(-c2cccc(S(=O)(=O)NC3CC3)c2)n1 [Compound 60] | 23
50 | COc1nc(NCCc2ccc(F)cc2)nc(-c2ccc(Cl)c(S(=O)(=O)NC3CC3)c2)n1 [Compound 62] | 4
51 | COc1nc(NCCc2ccc(F)cc2)nc(-c2ccc(OC)c(C#N)c2)n1 [Compound 64] | 19
52 | COc1nc(NCCc2ccc(F)cc2)nc(-c2ccc(Cl)c(OCCCNS(C)(=O)=O)c2)n1 [Compound 66] | 18
53 | COc1nc(NCCc2ccc(OC(F)F)cc2)nc(-c2ccc(Cl)c(OCC(N)=O)c2)n1 [Compound 68] | 11
54 | COc1nc(NCCc2ccc(OCF)cc2)nc(-c2ccc(OC)c(C(C)(C)O)c2)n1 [Compound 70] | 9

Same assay, conditions: reported in text, read-out: IC50 on hCB2

Row | IC50 [nM] | Structure (SMILES)
55 | 1.2 | CC(C)(O)c1cc(-c2nc(NCCc3ccc(F)cc3)nc(OCF)n2)ccc1Cl [Compound 71, 2-{2-Chloro-5-[4-(fluoromethoxy)-6-{[2-(4-fluorophenyl)ethyl]amino}-1,3,5-triazin-2-yl]phenyl}propan-2-ol]
56 | 1.2 | COc1ccc(-c2nc(NCCc3ccc(F)cc3)nc(OCF)n2)cc1C(C)(C)O [Compound 72, 2-{5-[4-(Fluoromethoxy)-6-{[2-(4-fluorophenyl)ethyl]amino}-1,3,5-triazin-2-yl]-2-methoxyphenyl}propan-2-ol]
